pIC50, pKi: −log10 of the molar value.

The values that follow come from patent US7807845B2, “Resistance-repellent retroviral protease inhibitors” (priority 2004, dated 2010).

For one test, the target named is mutant HIV PR (Mutant 9) (Human immunodeficiency virus type 1 group M subtype B, UniProt P04585). The experiment in a line: HIV PR inhibition assay, Mutant 9. Conditions: read-out: Ki Mutant 9; recombinant mutant HIV PR, fluorogenic substrate, pH 6.5. The class given is biochemical. Here is the method: (§1) Expression and purification of WT and mutant HIV PR. Recombinant wild type and mutant HIV PRs were expressed using pET21 vector (Novagen) in E. coli cells, and purified and refolded as described previously (Gulnik et al, 1995). The cells were resuspended in 50 mM tris-HCl buffer, pH 8.0, 25 mM NaCl, 0.2% β-mercaptoethanol (buffer A), sonicated and centrifuged. Inclusion bodies were washed first with buffer A, then with buffer A containing respectively 0.1% Triton X-100, 1 M NaCl, 1 M urea, and finally with buffer A alone. Purified inclusion bodies were solubilized by addition of buffer A containing 8 M urea at room temperature. The solution was clarified by centrifugation and loaded onto 2.6×9.5 cm Q-Sepharose column. Flow-through fractions were collected and dialyzed against 3 changes of refolding buffer, which consists of 25 mM Na-phosphate, pH 7.0, 25 mM NaCl, 0.2% β-mercaptoethanol and 10% glycerol, aliquoted and stored at −80° C.
(§2) Inhibition constants were determined using the fluorogenic substrate ArgGlu(EDANS)[…]DABCYL)Arg (Amichem, USA). HIV Protease was preincubated for 0.5-1 min at ambient temperature on a 96 well plate with different concentrations of inhibitor in 0.05 M sodium phosphate buffer, pH 6.5, containing 20 mM NaCl, 2 mM DTT and 0.01% Tween-20. The reaction was initiated by the addition of substrate. Final enzyme concentration was 2-5 nM for WT and 2-30 nM for mutants. Substrate concentration was 20 uM and DMSO concentration 2%. The increase in fluorescence intensity at the emission maximum of 520 nm (excitation wavelength 340 nm, cut-off filter 495 nm) was monitored as a function of time using a Spectramax Gemini fluorescence plate reader (Molecular Devices, CA USA). The initial rate of hydrolysis was calculated by first-degree polynomial fit using SoftMAX operating software. Data were fitted to the Michaelis-Menten equation for competitive inhibitors. For tight-binding inhibitors the data were fitted by nonlinear regression analysis to the equation V=V0/2Et({[Ki(1+S/Km)+It−Et]^2+4Ki(1+S/Km)Et}^1/2−[Ki(1+S/Km)+It−Et]) (Williams and Morrison, 1979) with the program GraFit, version 5 (Erithacus Software Limited, UK), where V and V0 are initial velocities with and without inhibitor, Km is the Michaelis-Menten constant and S, Et and It are the concentrations of substrate, active enzyme and inhibitor respectively.

In the next test the test system is WT=HIVHXB2. The experiment in a line: Antiviral assay in MT-4 cells (MTT), WT virus. The class given is cell-based, HIV. Conditions: Human immunodeficiency virus 1, MT4, 120 h, HIVHXB2, 5 days. Here is the method: (§3) MT-4 cells were obtained from the AIDS Research and Reference Reagent Program (ARRRP, Division of AIDS, NIAID, NIH: MT-4 from Dr. D. Richman). Cells were propagated in RPMI 1640 supplemented with 10% fetal bovine serum, 50U of penicillin and 50 μg of streptomycin per ml (Invitrogen, Carlsbad Calif.). The following HIV viruses were used for testing of antiviral potency of compounds: WT=HIVHXB2; recombinant HIVHXB2 virus from drug resistant patient isolates; HIVmutant10 (16 mutations); HIVmutant8 (14 mutations); HIVmutant9 (10 mutations).
(§4) The potency of test compound was determined as previously described (ref 1-3) with minor modifications. MT-4 cells (1.5×10^4/ml) were exposed to 200 50 % tissue culture infective doses (TCID50) of viruses in the presence of various concentrations of test compound in 96 well microtiter plates and incubated at 37° C. for 5 days. 3-(4,5-dimethylthiazol-2-yl)-2,5-diphenytetrazolium bromide (MTT) solution was added to a final concentration of 0.75 mg/ml, and plates were incubated 1 hour. After incubation cells were dissolved in isopropanol/Triton-X 100/HCl (1000:50:25) solution. Absorbance was monitored in a microplate reader (Spectramax, Molecular Devices) at 540 nm and 690 nm. Cytotoxicity of compounds was tested in a similar assay in the absence of virus.

Test [1] has as its system HIVmutant8 (14 mutations). The experiment in a line: Antiviral assay in MT-4 cells (MTT), mutant 8 virus. The class given is cell-based, HIV. Conditions: Human immunodeficiency virus 1, MT4, 120 h, read-out: IC50 Mutant 8. The protocol:
as §3, §4

For test [2], the target named is mutant HIV PR (Mutant 10) (Human immunodeficiency virus type 1 group M subtype B, UniProt P04585). The test can be described thus: HIV PR inhibition assay, Mutant 10. The class given is biochemical. Particulars: read-out: Ki Mutant 10; recombinant mutant HIV PR, fluorogenic substrate, pH 6.5. Here is the method:
as §1, §2

The test system of test [3] is HIVmutant10 (16 mutations). The experiment in a line: Antiviral assay in MT-4 cells (MTT), mutant 10 virus. The class given is cell-based, HIV. Particulars: Human immunodeficiency virus 1, MT4, 120 h, read-out: IC50 Mutant 10. The protocol:
as §3, §4

The target of a further test is T1, wild type HIV PR (Human immunodeficiency virus type 1 group M subtype B, UniProt P04585).
T1 construct: Recombinant wild type and mutant HIV PRs were expressed using pET21 vector (Novagen) in E. coli cells; made in house
The experiment in a line: HIV PR inhibition assay, wild type. The class given is biochemical. Here is the method:
as §1, §2

The subject of test [4] is HIVmutant9 (10 mutations). The experiment in a line: Antiviral assay in MT-4 cells (MTT), mutant 9 virus. The class given is cell-based, HIV. Conditions: Human immunodeficiency virus 1, MT4, 120 h, read-out: IC50 Mutant 9. Here is the method: as §3, §4
Another test concerns the target mutant HIV PR (Mutant 8) (Human immunodeficiency virus type 1 group M subtype B, UniProt P04585). The experiment in a line: HIV PR inhibition assay, Mutant 8. The class given is biochemical. Conditions: read-out: Ki Mutant 8; recombinant mutant HIV PR, fluorogenic substrate, pH 6.5. The protocol: as §1, §2

The term pKi denotes the Ki on a negative log10 scale, so that one unit is a factor of ten. For orientation: pIC50 means the negative decadic logarithm of the IC50, by convention in mol/L. Regarding `C=CCN(C=C1C(=O)Nc2ccc(S(=O)(=O)N(CC(C)C)CC(O)C(Cc3ccccc3)NC(=O)OC3COC4OCCC34)cc21)C1CCCC1` (centres unmarked) [Compound 116], the pKi on mutant HIV PR (Mutant 9) is more than 10.00; in test [2], more than 9.00; on wild type HIV PR, more than 10.00; at mutant HIV PR (Mutant 8), more than 9.52. Moreover, the pIC50 was 7.82 in the test with WT=HIVHXB2, 7.30 in test [1], 6.82 in test [3] and 7.70 in test [4].
For `CCCCN(C=C1C(=O)Nc2ccc(S(=O)(=O)N(CC(C)C)CC(O)C(Cc3ccccc3)NC(=O)OC3COC4OCCC34)cc21)CC` (centres unmarked) [Compound 118], the pKi was more than 10.00 on mutant HIV PR (Mutant 9), 8.72 in test [2], more than 10.00 on wild type HIV PR and more than 9.52 at mutant HIV PR (Mutant 8). Moreover, the pIC50 in the test with WT=HIVHXB2 was 7.89; in test [1], 7.40; in test [3] it was 7.22; in test [4], 7.82.
`CC(C)CN(CC(O)C(Cc1ccccc1)NC(=O)OC1COC2OCCC12)S(=O)(=O)c1ccc2c(c1)C(=CNCC(F)(F)C(F)(F)C(F)(F)F)C(=O)N2` (centres unmarked) [Compound 125]: the pKi was 9.77 on mutant HIV PR (Mutant 9), 8.92 in test [2], more than 10.00 on wild type HIV PR and more than 9.52 at mutant HIV PR (Mutant 8). Also, the pIC50 in the test with WT=HIVHXB2 is 7.85; in test [1] it was 7.43; in test [3] it was 7.41; in test [4] it was 7.62.
As to `CCOC(=O)C(NC=C1C(=O)Nc2ccc(S(=O)(=O)N(CC(C)C)CC(O)C(Cc3ccccc3)NC(=O)OC3COC4OCCC34)cc21)C(C)C` (centres unmarked) [Compound 133], the pKi is 9.40 on mutant HIV PR (Mutant 9), 8.51 in test [2], 9.85 on wild type HIV PR and more than 9.52 on mutant HIV PR (Mutant 8). Also, the pIC50 in the test with WT=HIVHXB2 was 7.77; in test [1], 7.72; in test [3], 7.57; in test [4] it was 7.80.
